In PubChem BioAssay AID330 (DTP/NCI, 2004):
Where “and” joins values, the source holds several entries; their conditions need not be identical. Equal entries are not always repeated. Toxic doses and inconclusive results are not listed. The calls were made as follows: active = survival T/C of 150% or more; inactive = T/C below 125% in these data.

System: P388 leukemia ip, CD2F1 mice, survival T/C
Assay: NCI In Vivo Anticancer Drug Screen. Data for tumor model P388 Leukemia (intraperitoneal) in CD2F1 (CDF1) mice
Conditions: endpoint: median survival time, higher = longer survival
Procedure, shortened: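 Mice carrying the transplanted tumor received test compound or vehicle. Survival was recorded in each group, and the value is the treated-group measurement divided by that of the vehicle-treated control group.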

[1] = dose: 50.0 mg/kg/injection, schedule: Q01DX005 (ip), vehicle: Klucel (hydroxypropylcellulose) (HPC)
[2] = dose: 100.0 mg/kg/injection, schedule: Q01DX005 (ip), vehicle: Klucel (hydroxypropylcellulose) (HPC)
[3] = dose: 200.0 mg/kg/injection, schedule: Q01DX005 (ip), vehicle: Klucel (hydroxypropylcellulose) (HPC)
[4] = dose: 100.0 mg/kg/injection, schedule: Q01DX001 (ip), vehicle: saline
[5] = dose: 200.0 mg/kg/injection, schedule: Q01DX001 (ip), vehicle: saline
[6] = dose: 400.0 mg/kg/injection, schedule: Q01DX001 (ip), vehicle: saline
[7] = dose: 15.0 mg/kg/injection, schedule: Q01DX005 (ip), vehicle: Klucel (hydroxypropylcellulose) (HPC)
[8] = dose: 30.0 mg/kg/injection, schedule: Q01DX005 (ip), vehicle: Klucel (hydroxypropylcellulose) (HPC)
[9] = dose: 60.0 mg/kg/injection, schedule: Q01DX005 (ip), vehicle: Klucel (hydroxypropylcellulose) (HPC)
[10] = dose: 120.0 mg/kg/injection, schedule: Q01DX005 (ip), vehicle: Klucel (hydroxypropylcellulose) (HPC)
[11] = dose: 240.0 mg/kg/injection, schedule: Q01DX005 (ip), vehicle: Klucel (hydroxypropylcellulose) (HPC)
[12] = dose: 50.0 mg/kg/injection, schedule: Q01DX009 (ip), vehicle: saline
[13] = dose: 100.0 mg/kg/injection, schedule: Q01DX009 (ip), vehicle: saline
[14] = dose: 200.0 mg/kg/injection, schedule: Q01DX009 (ip), vehicle: saline
[15] = dose: 50.0 mg/kg/injection, schedule: Q01DX005 (ip), vehicle: saline with Tween-80
[16] = dose: 100.0 mg/kg/injection, schedule: Q01DX005 (ip), vehicle: saline with Tween-80
[17] = dose: 200.0 mg/kg/injection, schedule: Q01DX005 (ip), vehicle: saline with Tween-80

Measured: T/C

CC(=O)[C@H]1C[C@H](O)[C@H]2[C@@H]3CCC4=CC(=O)CC[C@]4(C)[C@H]3C[C@@H](O)[C@@]21C
inactive: [1] 100 % of control | [2] 100 % of control | [3] 97 % of control

COc1ccc(/C=C(\C)[N+](=O)[O-])cc1OC
inactive: dose: 12.5 mg/kg/injection, schedule: Q01DX009 (ip), vehicle: distilled water + Tween-80 100 % of control | dose: 25.0 mg/kg/injection, schedule: Q01DX009 (ip), vehicle: distilled water + Tween-80 121 % of control | dose: 50.0 mg/kg/injection, schedule: Q01DX009 (ip), vehicle: distilled water + Tween-80 115 % of control | dose: 100.0 mg/kg/injection, schedule: Q01DX009 (ip), vehicle: distilled water + Tween-80 115 % of control

O=C1CCCCCCCNC(=O)CCCCCCC(=O)NCCCCCCCC(=O)NCCCCCCCCN1
inactive: dose: 50.0 mg/kg/injection, schedule: Q01DX001 (ip), vehicle: Klucel (hydroxypropylcellulose) (HPC) 91 % of control | dose: 100.0 mg/kg/injection, schedule: Q01DX001 (ip), vehicle: Klucel (hydroxypropylcellulose) (HPC) 90 % of control | dose: 200.0 mg/kg/injection, schedule: Q01DX001 (ip), vehicle: Klucel (hydroxypropylcellulose) (HPC) 86 % of control and 89 % of control | dose: 400.0 mg/kg/injection, schedule: Q01DX001 (ip), vehicle: Klucel (hydroxypropylcellulose) (HPC) 89 % of control

OCCN=Cc1ccccc1
inactive: dose: 25.0 mg/kg/injection, schedule: Q01DX009 (ip), vehicle: saline sonified 90 % of control | dose: 50.0 mg/kg/injection, schedule: Q01DX009 (ip), vehicle: saline sonified 104 % of control | dose: 100.0 mg/kg/injection, schedule: Q01DX009 (ip), vehicle: saline sonified 104 % of control

O=C1C=CC2(CC(O)OC3=C2C(=O)c2oc4cc(O)c(O)cc4c2C3=O)O1 (centres undefined)
inactive: dose: 10.0 mg/kg/injection, schedule: Q01DX009 (ip), vehicle: Klucel (hydroxypropylcellulose) (HPC) 102 % of control | dose: 20.0 mg/kg/injection, schedule: Q01DX009 (ip), vehicle: Klucel (hydroxypropylcellulose) (HPC) 109 % of control | dose: 40.0 mg/kg/injection, schedule: Q01DX009 (ip), vehicle: Klucel (hydroxypropylcellulose) (HPC) 105 % of control | dose: 80.0 mg/kg/injection, schedule: Q01DX009 (ip), vehicle: Klucel (hydroxypropylcellulose) (HPC) 111 % of control

CC(CC/C=C/CO)C1CC(OS(=O)(=O)O)C2(O)C1(C)CCC1C3CCC(O)C(O)C3C(O)CC12O (centres undefined)
inactive: dose: 5.0 mg/kg/injection, schedule: Q01DX005 (ip), vehicle: Klucel (hydroxypropylcellulose) (HPC) 100 % of control | dose: 10.0 mg/kg/injection, schedule: Q01DX005 (ip), vehicle: Klucel (hydroxypropylcellulose) (HPC) 106 % of control | dose: 20.0 mg/kg/injection, schedule: Q01DX005 (ip), vehicle: Klucel (hydroxypropylcellulose) (HPC) 98 % of control | dose: 40.0 mg/kg/injection, schedule: Q01DX005 (ip), vehicle: Klucel (hydroxypropylcellulose) (HPC) 95 % of control

O=C(CCSSc1ccccn1)ON1C(=O)CCC1=O
inactive: [4] 102 % of control | [5] 107 % of control | [6] 100 % of control

C[C@H]1CC[C@@]2(C)C(CCC(=O)C2(C)O)[C@]1(C)CC(=O)c1ccoc1 (some centres undefined)
inactive: dose: 3.75 mg/kg/injection, schedule: Q01DX005 (ip), vehicle: Klucel (hydroxypropylcellulose) (HPC) 91 % of control | dose: 7.5 mg/kg/injection, schedule: Q01DX005 (ip), vehicle: Klucel (hydroxypropylcellulose) (HPC) 88 % of control | [7] 88 % of control | [8] 88 % of control

NC1=C(O)C(=O)C(c2ccc(C3OC(N)=C(O)C3=O)cc2)O1 (centres undefined)
inactive: [9] 101 % of control | [10] 104 % of control | [11] 96 % of control

OCC(O)C(O)C(O)C(O)c1nn[nH]n1 (centres undefined)
inactive: [4] 95 % of control | [5] 101 % of control | [6] 92 % of control

COc1cc(CCNC(=O)CCN2C(=O)CCC2=O)cc(OC)c1OC
inactive: [12] 104 % of control | [13] 100 % of control | [14] 103 % of control

CCN(CC)C(=Nc1ccc(NC(=O)c2ccc(C(=O)Nc3ccc(N=C(c4ccccc4)N(CC)CC)cc3)cc2)cc1)c1ccccc1
inactive: [1] 96 % of control | [2] 97 % of control | [3] 96 % of control

CCCOc1ccc(C#N)cc1
inactive: dose: 50.0 mg/kg/injection, schedule: Q01DX009 (ip), vehicle: Klucel (hydroxypropylcellulose) (HPC) 102 % of control | dose: 100.0 mg/kg/injection, schedule: Q01DX009 (ip), vehicle: Klucel (hydroxypropylcellulose) (HPC) 108 % of control | dose: 200.0 mg/kg/injection, schedule: Q01DX009 (ip), vehicle: Klucel (hydroxypropylcellulose) (HPC) 99 % of control

O=c1[nH]cc(O)c(=O)[nH]1
inactive: dose: 167.0 mg/kg/injection, schedule: Q01DX009 (ip), vehicle: saline with Tween-80 95 % of control | dose: 267.0 mg/kg/injection, schedule: Q01DX009 (ip), vehicle: saline with Tween-80 113 % of control | dose: 400.0 mg/kg/injection, schedule: Q01DX009 (ip), vehicle: saline with Tween-80 104 % of control | dose: 600.0 mg/kg/injection, schedule: Q01DX009 (ip), vehicle: saline with Tween-80 109 % of control

Cn1cc(C2=C(Cl)C(=O)N(c3cc(Cl)cc(Cl)c3)C2=O)c(=O)n(C)c1=O
inactive: [7] 99 % of control | [8] 99 % of control | [9] 111 % of control

Cc1cn(C2CC(F)C(CO)O2)c(=O)[nH]c1=O (centres undefined)
inactive: dose: 12.5 mg/kg/injection, schedule: Q01DX009 (ip), vehicle: saline 106 % of control | dose: 25.0 mg/kg/injection, schedule: Q01DX009 (ip), vehicle: saline 101 % of control and 103 % of control | [12] 100 % of control and 110 % of control | [13] 101 % of control and 119 % of control | [14] 101 % of control | dose: 400.0 mg/kg/injection, schedule: Q01DX009 (ip), vehicle: saline 116 % of control

Cn1nnc(-c2ccc(C(=O)O)cc2)n1
inactive: [1] 91 % of control | [2] 91 % of control

COc1cccc(/C(C#N)=N/NC(=O)c2nc[nH]c2C)c1
inactive: dose: 1.56 mg/kg/injection, schedule: Q01DX005 (ip), vehicle: saline with Tween-80 93 % of control | dose: 3.12 mg/kg/injection, schedule: Q01DX005 (ip), vehicle: saline with Tween-80 94 % of control | dose: 6.25 mg/kg/injection, schedule: Q01DX005 (ip), vehicle: saline with Tween-80 95 % of control | dose: 12.5 mg/kg/injection, schedule: Q01DX005 (ip), vehicle: saline with Tween-80 93 % of control | [15] 86 % of control | [16] 87 % of control | [17] 100 % of control

SCc1ccccc1.[Cu+2]
inactive: dose: 6.25 mg/kg/injection, schedule: Q01DX009 (ip), vehicle: saline with Tween-80 99 % of control | dose: 12.5 mg/kg/injection, schedule: Q01DX009 (ip), vehicle: saline with Tween-80 91 % of control | dose: 25.0 mg/kg/injection, schedule: Q01DX009 (ip), vehicle: saline with Tween-80 97 % of control

COc1c(CCl)cc(-c2sc3ccccc3c(=O)c2CCl)cc1CCl
inactive: dose: 25.0 mg/kg/injection, schedule: Q01DX005 (ip), vehicle: saline with Tween-80 106 % of control and 93 % of control | [15] 100 % of control and 114 % of control and 97 % of control | [16] 100 % of control and 106 % of control | [17] 108 % of control and 124 % of control

C=C(C)C(=O)OC1CC2(C)OC(=CC2=O)C(C)CC2OC(=O)C(=C)C12 (centres undefined)
inactive: dose: 25.0 mg/kg/injection, schedule: Q01DX001 (ip), vehicle: saline with Tween-80 118 % of control | dose: 50.0 mg/kg/injection, schedule: Q01DX001 (ip), vehicle: saline with Tween-80 116 % of control

CCOc1c(N=Nc2ccc(Br)cc2)c(C)nn1C(=S)SC
inactive: [9] 93 % of control | [10] 92 % of control | [11] 98 % of control

CSC1=NSC(c2ccccc2)=C(c2ccccc2)S1
inactive: dose: 60.0 mg/kg/injection, schedule: Q01DX005 (ip), vehicle: saline with Tween-80 111 % of control | dose: 120.0 mg/kg/injection, schedule: Q01DX005 (ip), vehicle: saline with Tween-80 122 % of control | dose: 240.0 mg/kg/injection, schedule: Q01DX005 (ip), vehicle: saline with Tween-80 119 % of control

O=S(=O)(c1ccc(Cl)cc1)S(=O)(=O)c1ccc(Cl)cc1
inactive: [12] 92 % of control | [13] 97 % of control | [14] 101 % of control
